What all share (type): in vivo
Experiment [1] concerns barley net blotch fungus (Pyrenophora teres). Description: Barley net blotch control test, foliar spray before inoculation. The conditions noted are these: 500 ppm sprayed on barley (NISHINOHOSHI); inoculated 2 days after spraying. The method, then:
(§1) The control effect was evaluated by visually observing the area of lesion on each of test plants at the time of investigation, and comparing the area of lesion spots on a plant treated with the present compound with that on an untreated plant.
Each of plastic pots was filled with soil and barley (cultivar: NISHINOHOSHI) was sowed and grown in a greenhouse for 7 days. Then, each water dilution prepared by adjusting so as to contain a predetermined concentration (500 ppm) of any one compound of the present compounds 1, and 3 to 16 was sprayed over stems and leaves of the barley so that it sufficiently adhered to the surface of the leaves of the barley. After spraying, the plant was air-dried. After 2 days, an aqueous suspension containing spores of barley net blotch fungus (Pyrenophora teres) was sprayed to inoculate the spores. After completion of the inoculation, the plant was placed for 3 days in a greenhouse at 23° C. in the daytime and 20° C. at night under high humidity condition and cultivated in a greenhouse for 7 days, and then the area of lesion was investigated. As a result, the area of lesion on the plant treated with the present compound(s) 1, or 3 to 16 was 30% or less of that on an untreated plant.

The test system of experiment [2] is wheat leaf blotch fungus (Septoria tritici). As to the kind of experiment: Wheat leaf blotch control test, spray after inoculation. The conditions noted are these: 50 ppm sprayed on wheat (APOGEE) 3 days after inoculation.
For experiment [3], the system named is target spot fungus (Corynespora cassiicola). Description: Cucumber target spot control test, foliar spray before inoculation. The conditions noted are these: 200 ppm sprayed on cucumber (SAGAMI HANJIRO); inoculated one day after spraying; 7 days. As for the experimental part:
as §1
Each of plastic pots was filled with soil and cucumber (cultivar: SAGAMI HANJIRO) was sowed and grown in a greenhouse for 19 days. Then, each water dilution prepared by adjusting so as to contain a predetermined concentration (200 ppm) of the present compound 6 was sprayed over stems and leaves of the cucumber so that it sufficiently adhered to the surface of the leaves of the cucumber. After spraying, the plant was air-dried. After one day, an aqueous suspension containing spores of target spot fungus […]. After the inoculation, the plant was cultivated in a greenhouse at 24° C. in the daytime and 20° C. at night for 7 days, and then the area of lesion was investigated. As a result, the area of lesion on the plant treated with the present compound 6 was 30% or less of that on an untreated plant.

In experiment [4] the test system is wheat rust fungus (Puccinia recondita). Description: Wheat rust control test, foliar spray before inoculation. The conditions noted are these: 200 ppm sprayed on wheat (SHIROGANE); inoculated 5 days after spraying. As for the experimental part: as §1
Each of plastic pots was filled with soil and wheat (cultivar: SHIROGANE) was sowed and grown in a greenhouse for 9 days. Then, each water dilution prepared by adjusting so as to contain a predetermined concentration (200 ppm) of any one compound of the present compounds 12, and 14 to 16 was sprayed over stems and leaves of the wheat so that it sufficiently adhered to the surface of the leaves of the wheat. After spraying, the plant was air-dried and cultivated at 20° C. for 5 days under illumination, and then inoculated by sprinkling with spores of wheat rust fungus (Puccinia recondita). After the inoculation, the plant was placed at 23° C. for one day under dark and high humidity condition, and cultivated under illumination at 20° C. for 8 days, and then the area of lesion was investigated.

Experiment [5] deals with cotton aphid (Aphis gossypii). As to the kind of experiment: Cotton aphid control test on sprayed cucumber. The following applies: 500 ppm, 20 mL sprayed on cucumber; adults and larvae; after 6 days. The method, then: Thirty (30) heads of cotton aphid (Aphis gossypii) (including adults and larvae) were released on the leaves of cucumber (cultivar: SAGAMI HANJIRO FUSHINARI) grown in a polyethylene cup until the first true leaf was developed. Next day, 20 mL of the test chemical solution was sprayed.
Control value (%)={1−(Cb×Tai)/(Cai×Tb)}×100
wherein symbols in the equation represent the followings: […]
Cb: Number of insects before spraying chemical solution in untreated area;
Cai: Number of surviving insects in untreated area;
Tb: Number of insects before spraying chemical solution in treated area; and
Tai: Number of surviving insects in treated area.

Some results are limits rather than exact numbers.

Consider `Cn1nnn(-c2cnn(C(C)(C)C)c2COc2ccn(-c3ccc(Cl)cc3)n2)c1=O` [present compound 1, 1-(1-tert-butyl-5-{[1-(4-chlorophenyl)-1H-pyrazol-3-yl]oxymethyl}-1H-pyrazol-4-yl)-4-methyl-1,4-dihydrotetrazol-5-one], for which the “area of lesion on treated plant relative to that on an untreated plant” value in experiment [1] is at most 30%.
With `Cn1nnn(-c2cnn(C(C)(C)C)c2COc2nc(-c3ccc(Cl)cc3)cs2)c1=O` [present compound 3], the “area of lesion on treated plant relative to that on an untreated plant” value in experiment [2] is listed as at most 30%.
As to `Cn1nnn(-c2cccnc2COc2ccn(-c3ccc(Cl)cc3)n2)c1=O` [present compound 6, 1-(2-{[1-(4-chlorophenyl)-1H-pyrazol-3-yl]oxymethyl}-pyridin-3-yl)-4-methyl-1,4-dihydrotetrazol-5-one], in experiment [3], the “area of lesion on treated plant relative to that on an untreated plant” value is given as at most 30%.
Take `COc1ccccc1-n1ccc(OCc2c(-n3nnn(C)c3=O)cnn2C(C)(C)C)n1` [present compound 12, 1-(1-tert-butyl-5-{[1-(2-methoxyphenyl)-1H-pyrazol-3-yl]oxymethyl}-1H-pyrazol-4-yl)-4-methyl-1,4-dihydrotetrazol-5-one]: the “area of lesion on treated plant relative to that on an untreated plant” value in experiment [4] is listed as at most 30%. In addition, the Control value in experiment [5] is on record as at least 90%.

The record behind these values is patent publication US20160272622A1, “TETRAZOLINONE COMPOUND AND USE THEREOF” (SUMITOMO CHEMICAL COMPANY, LIMITED, priority 2013, published 2016).
